Experimental data: the supplement of paper PMC10307832

Tests used:
Assay in all cases: relative viability (nuclei count vs DMSO), 5 days (fraction); higher = more cells survive
AZ505 + Pictilisib = compound: C1CCC(CC1)N(CCNCCC2=C3C(=C(C=C2)O)NC(=O)CO3)C(=O)CCNCCC4=CC(=C(C=C4)Cl)Cl [AZ505] + CS(=O)(=O)N1CCN(Cc2cc3nc(-c4cccc5[nH]ncc45)nc(N4CCOCC4)c3s2)CC1 [Pictilisib] (partner 1 µM)
Procedure, shortened: (§1)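 For relative viability, nuclei counts in treated wells were divided by those in vehicle wells. Lung cancer cell lines had been pin-tool dosed in 1536-well plates the day after seeding and cultured for 5 days, then fixed and stained in one step (final 0.05% Triton X-100, 1% formaldehyde, 1 ug/ml Hoechst) and imaged at 4×. Doses were one drug alone or a fixed anchor-drug dose plus five library-drug doses (not always all listed) in √10 steps, and values are duplicate-plate medians.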

Dactolisib + Phenformin = compound: Cn1c(=O)n(-c2ccc(C(C)(C)C#N)cc2)c2c3cc(-c4cnc5ccccc5c4)ccc3ncc21 [Dactolisib] + N=C(N)NC(=N)NCCc1ccccc1 [Phenformin] (partner 250 µM)
Procedure, shortened: as §1

AZ505 + AZD7762 = compound: C1CCC(CC1)N(CCNCCC2=C3C(=C(C=C2)O)NC(=O)CO3)C(=O)CCNCCC4=CC(=C(C=C4)Cl)Cl [AZ505] + NC(=O)Nc1cc(-c2cccc(F)c2)sc1C(=O)N[C@H]1CCCNC1 [AZD7762] (partner 0.2 µM)
Procedure, shortened: as §1

AZ505 + Trametinib = compound: C1CCC(CC1)N(CCNCCC2=C3C(=C(C=C2)O)NC(=O)CO3)C(=O)CCNCCC4=CC(=C(C=C4)Cl)Cl [AZ505] + CC(=O)Nc1cccc(-n2c(=O)n(C3CC3)c(=O)c3c(Nc4ccc(I)cc4F)n(C)c(=O)c(C)c32)c1 [Trametinib] (partner 0.02 µM)
Procedure, shortened: as §1

Cell Line	relative viability (AZ505 + Pictilisib; first compound 0.08 µM)	relative viability (AZ505 + Pictilisib; first compound 0.253 µM)	relative viability (AZ505 + Pictilisib; first compound 0.8 µM)	relative viability (AZ505 + Pictilisib; first compound 2.53 µM)	relative viability (AZ505 + Pictilisib; first compound 8 µM)	relative viability (Dactolisib + Phenformin; first compound 0.002 µM)	relative viability (Dactolisib + Phenformin; first compound 0.006325 µM)	relative viability (Dactolisib + Phenformin; first compound 0.02 µM)	relative viability (Dactolisib + Phenformin; first compound 0.06325 µM)	relative viability (Dactolisib + Phenformin; first compound 0.2 µM)	relative viability (AZ505 + AZD7762; first compound 0.08 µM)	relative viability (AZ505 + AZD7762; first compound 0.253 µM)	relative viability (AZ505 + AZD7762; first compound 0.8 µM)	relative viability (AZ505 + AZD7762; first compound 2.53 µM)	relative viability (AZ505 + AZD7762; first compound 8 µM)	relative viability (AZ505 + Trametinib; first compound 0.08 µM)	relative viability (AZ505 + Trametinib; first compound 0.253 µM)	relative viability (AZ505 + Trametinib; first compound 0.8 µM)	relative viability (AZ505 + Trametinib; first compound 2.53 µM)	relative viability (AZ505 + Trametinib; first compound 8 µM)
NCI-H650	0.69	1.01	0.876	0.86	0.885	0.549	0.475	0.433	0.389	0.315	0.917	0.243	0.879	1.29	0.944	0.98	0.841	0.924	0.893	1.15
NCI-H1666	0.442	0.404	0.421	0.408	0.456	0.593	0.53	0.577	0.544	0.559	0.791	0.853	0.844	0.852	0.946	0.878	0.873	0.83	0.838	0.781
NCI-H2085	0.444	0.39	0.502	0.435	0.531	0.839	0.689	0.524	0.348	0.281	0.879	0.966	0.847	0.968	0.954	0.49	0.477	0.52	0.571	0.591
NCI-H1734	0.384	0.407	0.446	0.44	0.431	0.428	0.333	0.353	0.238	0.203	0.519	0.333	0.526	0.494	0.576	0.65	0.647	0.652	0.675	0.691
NCI-H2126	0.448	0.462	0.535	0.452	0.544	0.562	0.513	0.534	0.435	0.366	0.939	1.02	1.02	0.985	1.08	0.523	0.592	0.523	0.629	0.574
EMC-BAC-2	0.485	0.523	0.505	0.471	0.507	0.51	0.529	0.519	0.336	0.251	0.957	1.17	1.11	1.14	1.14	0.83	–	0.876	0.82	0.902
NCI-H1993	0.679	0.798	0.807	0.768	0.776	0.486	0.509	0.518	0.5	0.572	0.629	0.722	0.609	0.854	0.943	0.463	0.533	0.45	0.575	0.469
NCI-H647	0.448	–	0.359	0.422	0.485	0.536	0.449	0.429	0.156	0.105	0.344	0.226	0.539	0.576	0.722	0.478	0.509	0.404	0.379	0.467
